Measured values reported in ChEMBL document CHEMBL1123001, “Ibotenic acid analogues. Synthesis, molecular flexibility, and in vitro activity of agonists and antagonists at central glutamic acid receptors” (J Med Chem, 1985).
Active and inactive are the calls of the source. The rule behind the calls is not given here.

Columns and labels:
[1] = NMDA Antagonist activity was evaluated; na means no activity; format: functional
Rattus norvegicus [2] = species: Rattus norvegicus; experiment: Inhibition of [3H]AMPA binding in rat brain membrane was evaluated; format: functional
[3] = Antagonist activity was evaluated by NMDA-induced excitations of feline spinal neuron; activity is seen; format: functional; details: filed as antagonist
[4] = Antagonist activity was evaluated by NMDA-induced excitations of feline spinal neuron; no activity; format: functional
[5] = NMDA Antagonist activity was evaluated; na means no activity; na means no activity; format: functional
Rattus norvegicus [6] = species: Rattus norvegicus; experiment: GDEE-sensitive neuronal excitant (Relative potency) was evaluated; +++; format: functional, organism-based

SMILES | Antagonist activity [1] | IC50 (Rattus norvegicus [2]) | Antagonist activity [3] | Antagonist activity [4] | Antagonist activity [5] | Relative potency (Rattus norvegicus [6])
Cc1onc(O)c1C[C@H](N)C(=O)O [(S)-AMPA] | inactive | 0.6 µM |  |  |  | 
N[C@@H](CCC(=O)O)C(=O)O [GLUTAMIC ACID] | inactive | 1.3 µM |  |  |  | 
NC(CCc1cc(O)no1)C(=O)O (centres undefined) |  | 64 µM | Antagonist |  |  | 
Cc1c(O)noc1C(C)C(N)C(=O)O (centres undefined) | inactive | > 100 µM |  |  |  | 
CC(C)(C)c1onc(O)c1CC(N)C(=O)O (centres undefined) |  | 10.6 µM |  | inactive |  | 
Cc1onc(O)c1C[C@@H](N)C(=O)O | inactive | 4.8 µM |  |  |  | 
NC(Cc1c(O)noc1CBr)C(=O)O (centres undefined) | inactive | 0.6 µM |  |  |  | 
Cc1onc(O)c1CC(N)C(=O)O (racemic) [(R,S)-AMPA] |  | 0.8 µM |  |  | inactive | Active
NC(CCCc1cc(O)no1)C(=O)O (centres undefined) |  | > 100 µM | Antagonist |  |  | 
